Measured values: patent US20140135319A1, “6-SUBSTITUTED IMIDAZOPYRAZINES FOR USE AS MPS-1 AND TKK INHIBITORS IN THE TREATMENT OF HYPERPROLIFERATIVE DISORDERS” (BAYER INTELLECTUAL PROPERTY GMBH, priority 2010, published 2014)

These molecules were tested against T1, human kinase Mps-1 (Homo sapiens, UniProt P33981) (assay: Mps-1 kinase assay (TR-FRET)). Details: GST-tagged human full length recombinant Mps-1; 10 μM ATP; 1 μM peptide substrate; 60 min at 22° C.
T1 construct: N-terminally GST-tagged human full length recombinant Mps-1 kinase; GST (N); purchased Invitrogen, Karslruhe, Germany PV4071
T1 sequence (P33981 1-857): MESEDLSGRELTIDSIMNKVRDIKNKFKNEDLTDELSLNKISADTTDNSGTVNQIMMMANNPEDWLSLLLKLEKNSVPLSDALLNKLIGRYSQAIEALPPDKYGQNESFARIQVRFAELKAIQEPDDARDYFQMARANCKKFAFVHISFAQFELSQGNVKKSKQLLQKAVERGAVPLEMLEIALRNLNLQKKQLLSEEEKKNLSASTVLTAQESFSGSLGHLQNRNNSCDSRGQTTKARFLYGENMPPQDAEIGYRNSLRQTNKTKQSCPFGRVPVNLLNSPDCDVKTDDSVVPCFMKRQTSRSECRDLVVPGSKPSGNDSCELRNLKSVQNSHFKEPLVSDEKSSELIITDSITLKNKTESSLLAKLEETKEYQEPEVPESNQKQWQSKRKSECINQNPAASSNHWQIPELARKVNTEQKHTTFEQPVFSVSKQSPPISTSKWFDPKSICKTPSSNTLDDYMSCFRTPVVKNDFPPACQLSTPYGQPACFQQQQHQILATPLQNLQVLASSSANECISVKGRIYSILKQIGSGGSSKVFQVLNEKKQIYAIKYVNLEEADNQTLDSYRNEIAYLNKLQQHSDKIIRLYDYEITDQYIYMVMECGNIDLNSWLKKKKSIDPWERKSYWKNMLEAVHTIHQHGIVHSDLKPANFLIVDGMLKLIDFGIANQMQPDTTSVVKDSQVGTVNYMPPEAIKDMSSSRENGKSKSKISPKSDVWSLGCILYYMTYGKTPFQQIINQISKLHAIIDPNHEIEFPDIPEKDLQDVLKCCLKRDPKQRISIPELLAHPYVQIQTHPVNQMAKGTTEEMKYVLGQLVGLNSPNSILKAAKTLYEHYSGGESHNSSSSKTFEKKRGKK
Type: biochemical
Outline: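 TR-FRET read-out: after 1 h binding at 22° C, Eu-labelled anti-phospho-Ser/Thr antibody transfers to SA-XLent on the phosphorylated biotinylated peptide. The enzyme is GST-tagged full-length human Mps-1, typically about 1 nM final, in the linear range.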

Going from `Cc1cc(-c2cnc3c(NCCCC(C)O)nc(C4=CCOCC4)cn23)ccc1C(=O)NC1CC1` (stereo not shown) [Example 6-12, N-cyclopropyl-4-{6-(3,6-dihydro-2H-pyran-4-yl)-8-[(4-hydroxypentyl)amino]imidazo[1,2-a]pyrazin-3-yl}-2-methylbenzamide] to `Cc1cc(-c2cnc3c(NCC4CC4C)nc(C4=CCOCC4)cn23)ccc1C(=O)NC1CC1` (stereo not shown) [Example 6-16, N-cyclopropyl-4-[6-(3,6-dihydro-2H-pyran-4-yl)-8-{[(2-methylcyclo-propyl)methyl]amino}imidazo [1,2-a]pyrazin-3-yl]-2-methylbenzamide], the IC50 falls from 28 nM to 8.6 nM (3.3-fold).

`Cc1cc(-c2cnc3c(NCC4CNC(=O)C4)nc(C4=CCOCC4)cn23)ccc1C(=O)NC1CC1` (stereo not shown) [Example 6-13, N-cyclopropyl-4-[6-(3,6-dihydro-2H-pyran-4-yl)-8-{[(5-oxopyrrolidin-3-yl)methyl]amino}imidazo [1,2-a]pyrazin-3-yl]-2-methylbenzamide] and `Cc1cc(-c2cnc3c(NCC4CC(=O)N(C)C4)nc(C4=CCOCC4)cn23)ccc1C(=O)NC1CC1` (stereo not shown) [Example 6-15, N-cyclopropyl-4-[6-(3,6-dihydro-2H-pyran-4-yl)-8-{[(1-methyl-5-oxopyrrolidin-3-yl)methyl]amino}imidazo[1,2-a]pyrazin-3-yl]-2-methylbenzamide] are within 1.5-fold of each other in IC50: 29.9 nM for the first, 44.8 nM for the second.

`Cc1cc(-c2cnc3c(NCCC4CCN(C)CC4)nc(C4=CCOCC4)cn23)ccc1C(=O)NC1CC1` [Example 6-14, N-cyclopropyl-4-[6-(3,6-dihydro-2H-pyran-4-yl)-8-{[2-(1-methyl-piperidin-4-yl)ethyl]amino}imidazo[1,2-a]pyrazin-3-yl]-2-methylbenzamide] and `CCN1CCC(CNc2nc(C3=CCOCC3)cn3c(-c4ccc(C(=O)NC5CC5)c(C)c4)cnc23)C1` (stereo not shown) [Example 6-19, N-cyclopropyl-4-[6-(3,6-dihydro-2H-pyran-4-yl)-8-{[(1-ethyl-pyrrolidin-3-yl)methyl]amino}imidazo[1,2-a]pyrazin-3-yl]-2-methylbenzamide] are within 1.5-fold of each other in IC50: 293 nM for the first, 338 nM for the second.

Going from `Cc1cc(-c2cnc3c(NCC4CC(F)(F)C4)nc(C4=CCOCC4)cn23)ccc1C(=O)NC1CC1` [Example 6-17, N-cyclopropyl-4-[8-{[(3,3-difluoro-cyclobutyl)methyl]amino}-6-(3,6-dihydro-2H-pyran-4-yl)imidazo [1,2-a]pyrazin-3-yl]-2-methylbenzamide] to `Cc1cc(-c2cnc3c(NCC4CCC(N(C)C)CC4)nc(C4=CCOCC4)cn23)ccc1C(=O)NC1CC1` (stereo not shown) [Example 6-18, N-cyclopropyl-4-[6-(3,6-dihydro-2H-pyran-4-yl)-8-({[4-(dimethylamino)cyclohexyl]methyl}amino)imidazo[1,2-a]pyrazin-3-yl]-2-methylbenzamide], the IC50 rises from 10.5 nM to 199 nM (19-fold).

`CC(C)CNc1nc(CCC(C)(C)O)cn2c(-c3ccc(C(=O)NC4CC4)cc3)cnc12` [Example 7-1, N-cyclopropyl-4-{6-(3-hydroxy-3-methylbutyl)-8-[(2-methylpropyl)amino]imidazo[1,2-a]pyrazin-3-yl}benzamide] and `CC(C)CNc1nc(CCCO)cn2c(-c3ccc(C(=O)NC4CC4)cc3)cnc12` [Example 7-3, N-cyclopropyl-4-{6-(3-hydroxypropyl)-8-[(2-methylpropyl)amino]imidazo[1,2-a]pyrazin-3-yl}benzamide] are within 1.5-fold of each other in IC50: 6.9 nM for the first, 7.2 nM for the second.

Compared with `CC(C)CNc1nc(CCCN(C)C)cn2c(-c3ccc(C(=O)NC4CC4)cc3)cnc12` [Example 7-2, N-cyclopropyl-4-{6-[3-(dimethylamino)propyl]-8-[(2-methylpropyl)amino]imidazo[1,2-a]pyrazin-3-yl}benzamide], `CNC(=O)CCCCc1cn2c(-c3ccc(C(=O)NC4CC4)cc3)cnc2c(NCC(C)C)n1` [Example 7-5, N-cyclopropyl-4-{6-[5-(methylamino)-5-oxopentyl]-8-[(2-methylpropyl)amino]imidazo[1,2-a]pyrazin-3-yl} benzamide] is 6.5-fold lower in IC50: 42.2 nM for the first, 6.5 nM for the second. The second is the more potent here.

Going from `CC(C)CNc1nc(C2CCOCC2)cn2c(-c3ccc(C(=O)NC4CC4)cc3)cnc12` [Example 7-4, N-cyclopropyl-4-{8-[(2-methylpropyl)amino]-6-(tetrahydro-2H-pyran-4-yl)imidazo[1,2-a]pyrazin-3-yl}benzamide] to `CC(C)CNc1nc(C2CCN(C)CC2)cn2c(-c3ccc(C(=O)NC4CC4)cc3)cnc12` [Example 7-6, N-cyclopropyl-4-{6-(1-methylpiperidin-4-yl)-8-[(2-methylpropyl)amino]imidazo[1,2-a]pyrazin-3-yl}benzamide], the IC50 rises from 1.5 nM to 3.9 nM (2.6-fold). The first is the more potent here.

Compared with `CC(C)CNc1nc(C(=O)Nc2ccccc2)cn2c(-c3ccc(C(=O)NC4CC4)cc3)cnc12` [Example 8-1, 3-[4-(cyclopropylcarbamoyl)phenyl]-8-[(2-methylpropyl)amino]-N-phenylimidazo[1,2-a]pyrazine-6-carboxamide], `CC(C)CNc1nc(Oc2ccccc2)cn2c(-c3ccc(C(=O)NC4CC4)cc3)cnc12` [Example 13-1] is 67-fold lower in IC50: 67.2 nM for the first, 1 nM for the second. The second is the more potent here.

Compared with `CC(C)CNc1nc(C(=O)NCCN2CCCCC2)cn2c(-c3ccc(C(=O)NC4CC4)cc3)cnc12` [Example 8-2, 3-[4-(cyclopropylcarbamoyl)phenyl]-8-[(2-methylpropyl)amino]-N-[2-(piperidin-1-yl)ethyl] imidazo[1,2-a]pyrazine 6-carboxamide], `CC(C)CNc1nc(C(=O)N2CCCCC2)cn2c(-c3ccc(C(=O)NC4CC4)cc3)cnc12` [Example 8-3, N-cyclopropyl-4-{8-[(2-methylpropyl)amino]-6-(piperidin-1-ylcarbonyl)imidazo[1,2-a]pyrazin-3-yl}benzamide] is 1.8-fold higher in IC50: 11.7 nM for the first, 20.6 nM for the second. The first is the more potent here.

First: Cc1cc(-c2cnc3c(NCCC(F)(F)F)nc(C4=CC[S+]([O-])CC4)cn23)ccc1C(=O)NC1CC1 (stereo not shown) [Example 9-1, N-cyclopropyl-2-methyl-4-{6-(1-oxido-3,6-dihydro-2H-thiopyran-4-yl)-8-[(3,3,3-trifluoropropyl)amino]imidazo[1,2-a]pyrazin-3-yl}benzamide]
Second: Cc1cc(-c2cnc3c(NCCC(F)(F)F)nc(CN)cn23)ccc1C(=O)NC1CC1 [Example 10-1, 4-{6-(aminomethyl)-8-[(3,3,3-trifluoropropyl)amino]imidazo[1,2-a]pyrazin-3-yl}-N-cyclopropyl-2-methylbenzamide]
The IC50 of the first is 5.2-fold lower: 16 nM for the first, 82.9 nM for the second. The first is the more potent here.

Going from `Cc1cc(-c2cnc3c(NCCC(F)(F)F)nc(CN4CCCCC4)cn23)ccc1C(=O)NC1CC1` [Example 11-1, N-cyclopropyl-2-methyl-4-{6-(piperidin-1-ylmethyl)-8-[(3,3,3-trifluoropropyl)amino]imidazo[1,2-a]pyrazin-3-yl}benzamide] to `Cc1cc(-c2cnc3c(NCCC(F)(F)F)nc(CNc4ccccc4)cn23)ccc1C(=O)NC1CC1` [Example 11-2, N-cyclopropyl-2-methyl-4-{6-[(phenylamino)methyl]-8-[(3,3,3-trifluoropropyl)amino]imidazo[1,2-a]pyrazin-3-yl}benzamide], the IC50 falls from 140 nM to 1.2 nM (120-fold).

Going from `CC(C)CNc1nc(N2CCCCS2(=O)=O)cn2c(-c3ccc(C(=O)NC4CC4)cc3)cnc12` [Example 12-1, N-cyclopropyl-4-{6-(1,1-dioxido-1,2-thiazinan-2-yl)-8-[(2-methylpropyl)amino]imidazo[1,2-a]pyrazin-3-yl}benzamide] to `CC(C)CNc1nc(C(N)=O)cn2c(-c3ccc(C(=O)NC4CC4)cc3)cnc12` [Example 14-1, 3-[4-(cyclopropylcarbamoyl)phenyl]-8-[(2-methylpropyl)amino]imidazo[1,2-a]pyrazine-6-carboxamide], the IC50 rises from 6.5 nM to 9.9 nM (1.5-fold). The first is the more potent here.

`Cc1cc(-c2cnc3c(NCC(C)(C)O)nc(Oc4ccccc4)cn23)ccc1C(=O)NC1CC1` [Example 13-4, N-cyclopropyl-4-{8-[(2-hydroxy-2-methylpropyl)amino]-6-phenoxy-imidazo[1,2-a]pyrazin-3-yl}-2-methylbenzamide] and `Cc1cc(-c2cnc3c(NCC(C)(C)O)nc(Oc4cccc(F)c4)cn23)ccc1C(=O)NC1CC1` [Example 13-5, N-cyclopropyl-4-{6-(3-fluorophenoxy)-8-[(2-hydroxy-2-methylpropyl)amino]imidazo[1,2-a]pyrazin-3-yl}-2-methyl benzamide] are within 1.5-fold of each other in IC50: 2 nM for the first, 1.7 nM for the second.

`Cc1cc(-c2cnc3c(NCC(C)(C)O)nc(Sc4ccccc4)cn23)ccc1C(=O)NC1CC1` [Example 15-1, N-cyclopropyl-4-{8-[(2-hydroxy-2-methylpropyl)amino]-6-(phenylsulfanyl)imidazo[1,2-a]pyrazin-3-yl}-2-methylbenzamide] and `Cc1cc(-c2cnc3c(NCCC(F)(F)F)nc(Sc4ccccc4)cn23)ccc1C(=O)NC1CC1` [Example 15-2, N-cyclopropyl-2-methyl-4-{6-(phenylsulfanyl)-8-[(3,3,3-trifluoropropyl)amino]imidazo[1,2-a]pyrazin-3-yl}benzamide] cannot be ordered by IC50: under 1 nM for the first, under 1 nM for the second.
